Assay results as given in patent US20230113037A1 (Bayer Aktiengesellschaft, priority 2019, published 2023).
Read-outs that look alike come from different tables or passages of the source.

What was measured:
[1] = target: T1, AHR (Homo sapiens, UniProt P35869); test: In vitro assay 1: antagonism in human cell line (AHR transactivation, firefly luciferase reporter, kynurenic acid prestimulated); assay type: cell-based; settings: AHR Antagonism Human IC50 [M]
T1 construct: U87 MG glioblastoma cells (ATCC #HTB-14) endogenously expressing AHR; endogenous in cells; host or cells: U87 MG glioblastoma cells (ATCC #HTB-14)
T1 sequence (P35869 11-848): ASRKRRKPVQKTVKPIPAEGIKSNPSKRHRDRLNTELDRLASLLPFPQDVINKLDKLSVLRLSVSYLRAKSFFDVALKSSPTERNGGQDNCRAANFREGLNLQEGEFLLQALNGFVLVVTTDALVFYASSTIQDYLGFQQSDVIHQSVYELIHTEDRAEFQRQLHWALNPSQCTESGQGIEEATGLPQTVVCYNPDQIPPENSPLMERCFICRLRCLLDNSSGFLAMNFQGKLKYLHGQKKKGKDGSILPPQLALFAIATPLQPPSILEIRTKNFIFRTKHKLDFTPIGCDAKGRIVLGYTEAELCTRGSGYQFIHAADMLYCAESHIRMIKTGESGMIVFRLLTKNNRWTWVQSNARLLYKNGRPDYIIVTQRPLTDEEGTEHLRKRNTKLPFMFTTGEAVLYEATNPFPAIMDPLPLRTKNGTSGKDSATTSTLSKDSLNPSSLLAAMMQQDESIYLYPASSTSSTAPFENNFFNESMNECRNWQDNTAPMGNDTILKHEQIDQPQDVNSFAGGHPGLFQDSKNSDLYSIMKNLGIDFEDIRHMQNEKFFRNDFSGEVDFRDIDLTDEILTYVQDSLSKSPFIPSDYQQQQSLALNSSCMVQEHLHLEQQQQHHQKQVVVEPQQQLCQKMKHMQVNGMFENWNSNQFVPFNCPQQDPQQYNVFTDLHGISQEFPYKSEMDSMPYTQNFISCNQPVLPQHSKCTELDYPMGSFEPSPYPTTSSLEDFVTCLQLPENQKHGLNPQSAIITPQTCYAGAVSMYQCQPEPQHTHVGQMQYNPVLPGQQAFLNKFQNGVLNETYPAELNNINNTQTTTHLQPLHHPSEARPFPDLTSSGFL
Procedure, shortened: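 Antagonism measured as loss of kynurenic acid-driven firefly luciferase from DRE reporter in stably transfected U87 MG cells; constitutive Renilla signal monitors cytotoxicity. Positive/negative control normalization, staurosporine 5 μM with 150 μM kynurenic acid as inhibition control; replicates given as mean or median.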

[2] = target: T2, AHR (Mus musculus, UniProt P30561); test: In vitro assay 3: antagonism in mouse cell line (AHR transactivation, firefly luciferase reporter, kynurenic acid prestimulated); assay type: cell-based
T2 sequence (P30561 1-848 P471L/N533S/M589L): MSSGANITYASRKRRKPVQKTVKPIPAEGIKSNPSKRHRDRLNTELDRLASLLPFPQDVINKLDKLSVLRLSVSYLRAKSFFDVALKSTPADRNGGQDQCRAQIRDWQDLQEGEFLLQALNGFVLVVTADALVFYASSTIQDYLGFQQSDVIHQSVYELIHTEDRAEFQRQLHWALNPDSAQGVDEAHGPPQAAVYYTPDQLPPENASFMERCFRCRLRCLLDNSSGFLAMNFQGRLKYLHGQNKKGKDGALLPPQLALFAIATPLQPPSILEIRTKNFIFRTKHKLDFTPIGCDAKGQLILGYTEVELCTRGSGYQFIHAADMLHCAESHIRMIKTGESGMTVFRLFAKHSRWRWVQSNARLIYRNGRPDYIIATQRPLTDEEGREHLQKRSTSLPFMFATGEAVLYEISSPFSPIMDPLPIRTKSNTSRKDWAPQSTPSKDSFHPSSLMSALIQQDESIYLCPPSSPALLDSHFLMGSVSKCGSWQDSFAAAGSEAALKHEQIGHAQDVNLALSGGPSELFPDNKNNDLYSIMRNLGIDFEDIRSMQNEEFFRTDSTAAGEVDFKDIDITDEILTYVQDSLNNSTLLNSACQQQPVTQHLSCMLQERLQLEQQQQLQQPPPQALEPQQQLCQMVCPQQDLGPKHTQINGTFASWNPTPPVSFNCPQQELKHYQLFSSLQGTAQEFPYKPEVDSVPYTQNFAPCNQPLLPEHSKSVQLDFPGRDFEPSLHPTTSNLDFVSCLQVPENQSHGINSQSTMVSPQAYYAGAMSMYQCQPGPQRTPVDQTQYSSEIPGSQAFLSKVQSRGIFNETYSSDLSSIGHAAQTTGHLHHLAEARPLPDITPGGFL
Procedure, shortened: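 Luminescence from an AHR-dependent DRE-luciferase reporter, stably integrated in mouse cells, quantifies blockade of kynurenic acid-driven activation. Unstimulated cells mark maximal inhibition; normalization uses both control types, and multiply tested compounds carry mean or median values.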

[3] = Hepa 1c1c7 cells, 200 μM kynurenic acid, 20 hours, firefly luciferase reporter, read-out: AHR Antagonism Mouse IC50
[4] = mouse Hepa 1c1c7 cells, 200 μM kynurenic acid, 20 hours, read-out: AHR Antagonism Mouse IC50
[5] = read-out: AHR Antagonism Mouse IC50, mouse Hepa 1c1c7 cells, 200 μM kynurenic acid, 20 hours

SMILES	IC50 ([1]; firefly luciferase reporter) [M]	IC50 [2, 3] [nM]	IC50 [1] [M]	IC50 [2, 4] [nM]	IC50 [2, 5] [nM]
COc1ccc(-c2nc3c4cccc(Br)c4nc(N[C@H](C)C(=O)N4C[C@H]5C[C@@H]4CN5C)n3n2)cc1 [Example 903, (2R)-2-{[7-bromo-2-(4-methoxyphenyl)[1,2,4]triazolo[1,5-c]quinazolin-5-yl]amino}-1-[(1R,4R)-5-methyl-2,5-diazabicyclo[2.2.1]heptan-2-yl]propan-1-one]	4.09e-09	6.59	–	–	–
O=C1NCC[C@H]1Nc1nc2ccccc2c2nc(-c3ccc(Cl)cc3OC(F)F)nn12 [Example 528, (3R)-3-({2-[4-chloro-2-(difluoromethoxy)phenyl][1,2,4]triazolo[1,5-c]quinazolin-5-yl}amino)pyrrolidin-2-one]	–	–	9.3e-09	6.94	–
O=C1NCCCC[C@H]1Nc1nc2ccccc2c2nc(-c3cc(C(F)(F)F)cc(C(F)(F)F)c3)nn12 [Example 359, (3R)-3-({2-[3,5-Bis(trifluoromethyl)phenyl][1,2,4]triazolo[1,5-c]quinazolin-5-yl}amino)azepan-2-one]	–	–	> 2e-05	93.4	–
CN(C)Cc1noc(-c2nc3c4ccccc4nc(N[C@@H]4CCCCNC4=O)n3n2)n1 [Example 304, (3R)-3-[(2-{3-[(Dimethylamino)methyl]-1,2,4-oxadiazol-5-yl}[1,2,4]triazolo[1,5-c]quinazolin-5-yl)amino]azepan-2-one]	–	–	2.86e-06	1830	–
O=C1NCCCC[C@H]1Nc1nc2ccccc2c2nc(-c3ccc(OC4CC4)cc3)nn12 [Example 612, (3R)-3-({2-[4-(cyclopropyloxy)phenyl][1,2,4]triazolo[1,5-c]quinazolin-5-yl}amino)azepan-2-one]	–	–	1.32e-09	1.23	–
COc1cccc(-c2nc3c4ccccc4nc(N[C@H](CCS(C)(=O)=O)C(N)=O)n3n2)c1 [Example 113, (2R)-2-{[2-(3-methoxyphenyl)[1,2,4]triazolo[1,5-c]quinazolin-5-yl]amino}-4-(methylsulfonyl)butanamide]	–	–	1.58e-05	719	–
COc1ccc(-c2nc3c4cccc(Br)c4nc(N[C@H]4CCCCNC4=O)n3n2)c(OC(F)(F)F)c1 [Example 566, (3S)-3-({7-bromo-2-[4-methoxy-2-(trifluromethoxy)phenyl][1,2,4]triazolo[1,5-c]quinazolin-5-yl}amino)azepan-2-one]	–	–	1.76e-07	20.8	–
CC(C)Oc1ccc(-c2nc3c4ccccc4nc(N[C@@H]4CCCCNC4=O)n3n2)cc1F [Example 632, (3R)-3-[(2-{3-fluoro-4-[(propan-2-yl)oxy]phenyl}[1,2,4]triazolo[1,5-c]quinazolin-5-yl)amino]azepan-2-one]	–	–	1.29e-09	0.784	–
N#Cc1ccccc1-c1nc2c3ccccc3nc(N[C@@H]3CCCCNC3=O)n2n1 [Example 619, 2-(5-{[(3R)-2-oxoazepan-3-yl]amino}[1,2,4]triazolo[1,5-c]quinazolin-2-yl)benzonitrile]	–	–	1.44e-09	2.96	–
O=C1NCCNC[C@H]1Nc1nc2ccccc2c2nc(-c3ccc(Br)o3)nn12 [Example 412, (6R)-6-{[2-(5-bromofuran-2-yl)[1,2,4]triazolo[1,5-c]quinazolin-5-yl]amino}-1,4-diazepan-5-one]	–	–	8.37e-08	236	–
COc1ccc(-c2nc3c4ccccc4nc(N[C@H](C)C(=O)NC4CCCCC4)n3n2)cc1 [Example 665, N-cyclohexyl-N2-[2-(4-methoxyphenyl)[1,2,4]triazolo[1,5-c]quinazolin-5-yl]-D-alaninamide]	–	–	1.87e-08	–	11.3
CS(=N)(=O)c1ccccc1-c1nc2c3ccccc3nc(N[C@@H]3CCCCNC3=O)n2n1 (single isomer, unassigned) [Example 661]	–	–	1.53e-07	–	139
Cn1cc(-c2nc3c4cccc(C#N)c4nc(N[C@@H]4CNCCNC4=O)n3n2)cn1 [Example 930, 2-(1-methyl-1H-pyrazol-4-yl)-5-{[(6R)-5-oxo-1,4-diazepan-6-yl]amino}[1,2,4]triazolo[1,5-c]quinazoline-7-carbonitrile]	5.21e-06	14100	–	–	–
Cc1cccc(-c2nc3c4ccccc4nc(N[C@@H]4CCCCNC4=O)n3n2)c1 [Example 53, (3R)-3-{[2-(3-methylphenyl)[1,2,4]triazolo[1,5-c]quinazolin-5-yl]amino}azepan-2-one]	–	–	1.16e-08	5.28	–
COc1ccc(-c2nc3c4c(C)cccc4nc(N[C@@H]4CCCCNC4=O)n3n2)cc1 [Example 243, (3R)-3-{[2-(4-methoxyphenyl)-10-methyl[1,2,4]triazolo[1,5-c]quinazolin-5-yl]amino}azepan-2-one]	–	–	4.02e-09	14.8	–
CCn1cc(-c2nc3c4cccc(OC)c4nc(N[C@@H]4CCCCNC4=O)n3n2)c(C)n1 [Example 753, (3R)-3-{[2-(1-ethyl-3-methyl-1H-pyrazol-4-yl)-7-methoxy[1,2,4]triazolo[1,5-c]quinazolin-5-yl]amino}azepan-2-one]	–	–	9.89e-09	40.6	–
COc1cccc(-c2nc3c4c(C)cccc4nc(NC4CCNC4=O)n3n2)c1 (single isomer, unassigned) [Example 190, 3-{[2-(3-methoxyphenyl)-10-methyl[1,2,4]triazolo[1,5-c]quinazolin-5-yl]amino}pyrrolidin-2-one]	–	–	1.54e-07	–	252
CCOC(=O)[C@@H](C)Nc1nc2c(C(F)(F)F)cccc2c2nc(-c3cnn(C)c3)nn12 [Example 864, ethyl N-[2-(1-methyl-1H-pyrazol-4-yl)-7-(trifluoromethyl)[1,2,4]triazolo[1,5-c]quinazolin-5-yl]-D-alaninate]	2.57e-08	378	–	–	–
CCC[C@@H](Nc1nc2ccccc2c2nc(-c3ccc(S(C)(=O)=O)cc3)nn12)C(=O)NC [Example 377, N^2-{2-[4-(methanesulfonyl)phenyl][1,2,4]triazolo[1,5-c]quinazolin-5-yl}-N-methyl-D-norvalinamide]	–	–	3.28e-08	12.4	–
C[C@@H](Nc1nc2c(C(F)(F)F)cccc2c2nc(-c3cnn(C)c3)nn12)C(=O)N1CCOCC1 [Example 874, (2R)-2-{[2-(1-methyl-1H-pyrazol-4-yl)-7-(trifluoromethyl)[1,2,4]triazolo[1,5-c]quinazolin-5-yl]amino}-1-(morpholin-4-yl)propan-1-one]	2.31e-08	61.7	–	–	–
O=C1NCCCC[C@@H]1Nc1nc2ccccc2c2nc(-c3ccsc3)nn12 [Example 341]	–	–	1.18e-07	17.7	–
Cn1nccc1-c1nc2c3cccc(C(F)(F)F)c3nc(N[C@@H]3CCCCNC3=O)n2n1 [Example 808, (3R)-3-{[2-(1-methyl-1H-pyrazol-5-yl)-7-(trifluoromethyl)[1,2,4]triazolo[1,5-c]quinazolin-5-yl]amino}azepan-2-one]	8.12e-10	1.16	–	–	–
